The values that follow come from BindingDB's records for doi:10.1016/j.bmcl.2017.10.053 (Vanderbilt University School of Medicine, 2017).

A word on the EC50: it is the concentration needed to bring the measured effect to its halfway point.

This assay has as its target T1, Muscarinic acetylcholine receptor M4 (Homo sapiens, UniProt P08173).
T1 sequence (P08173 whole entry): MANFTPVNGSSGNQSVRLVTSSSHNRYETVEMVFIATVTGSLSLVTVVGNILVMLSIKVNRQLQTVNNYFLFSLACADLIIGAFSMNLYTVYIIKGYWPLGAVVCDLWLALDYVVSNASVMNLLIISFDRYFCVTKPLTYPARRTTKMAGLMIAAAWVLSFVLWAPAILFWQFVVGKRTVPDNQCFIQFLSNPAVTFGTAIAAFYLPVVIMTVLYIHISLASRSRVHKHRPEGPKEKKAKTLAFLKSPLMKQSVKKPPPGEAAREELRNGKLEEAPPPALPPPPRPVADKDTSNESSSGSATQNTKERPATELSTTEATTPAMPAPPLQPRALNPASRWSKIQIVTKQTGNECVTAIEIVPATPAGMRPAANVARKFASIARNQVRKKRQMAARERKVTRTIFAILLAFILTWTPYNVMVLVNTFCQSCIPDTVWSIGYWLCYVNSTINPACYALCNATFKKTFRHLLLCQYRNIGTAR
Kind of assay: Positive allosteric modulation of human M4 receptor expressed in CHO cells co-expressing Gqi5 assessed as increase in acetylcholine-induced calcium mobilization. On the technique in general: A change in cytosolic calcium serves as a functional read-out for many receptors and channels.

On to `Cc1nnc2sc(C(=O)N3CC4(CCN(c5cccnc5)C4)C3)c(N)c2c1C`, for which the EC50 amounted to 324 nM.
